Test results as given in patent publication US8846570B2, “Herbicidal compositions comprising 4-amino-3-chloro-5-fluoro-6-(4-chloro-2-fluoro-3-methoxyphenyl)pyridine-2-carboxylic acid or a derivative thereof and microtubule inhibiting herbicides” (Dow AgroSciences LLC, priority 2012, dated 2014).

Assays:
Type in all cases: in vivo
[1] = tested on: Echinochloa crusgalli (L.) Beauv. (ECHCG); experiment: Postemergence foliar-applied, direct seeded rice, greenhouse: visual weed control; conditions: 21 DAA
Experimental: (§1) Seeds or nutlets of the desired test plant species were planted in a soil matrix prepared by mixing a loam or sandy loam soil (e.g., 28.6 percent silt, 18.8 percent clay, and 52.6 percent sand, with a pH of about 5.8 and an organic matter content of about 1.8 percent) and calcareous grit in an 80 to 20 ratio. The soil matrix was contained in plastic pots with a volume of 1 quart and a surface area of 83.6 cm^2. […] The plants were grown for 8-22 days in a greenhouse with an approximate 14 h photoperiod which was maintained at about 29° C. during the day and 26° C. during the night. Nutrients (Peters Excel® 15-5-15 5-Ca 2-Mg and iron chelate) were applied in the irrigation solution as needed and water was added on a regular basis. Supplemental lighting was provided with overhead metal halide 1000-Watt lamps as necessary. The plants were employed for testing when they reached the first through fourth true leaf stage.
(§2) Forms of compound A were applied on an acid equivalent basis.
(§3) For treatments comprised of formulated compounds, measured amounts of compounds were placed individually in 25 mL glass vials and diluted in a volume of 1.25% (v/v) Agri-Dex® crop oil concentrated to obtain 12× stock solutions. […] Application solutions were prepared by adding an appropriate amount of each stock solution (e.g., 1 mL) and diluted to the appropriate final concentrations with the addition of 10 mL of an aqueous mixture of 1.25% (v/v) crop oil concentrate so that the final spray solutions contained 1.25+/−0.05% (v/v) crop oil concentrate.
(§4) As required, additional water and/or 97:3 v/v acetone/DMSO was added to individual application solutions so that the final acetone and DMSO concentrations of the application solutions being compared were 8.1% and 0.25%, respectively.
(§5) All stock solutions and applications solutions were visually inspected for compound compatibility prior to application. Spray solutions were applied to the plant material with an overhead Mandel track sprayer equipped with a 8002E nozzles calibrated to deliver 187 L/ha over an application area of 0.503 m^2 at a spray height of 18 to 20 inches (46 to 50 cm) above average plant canopy height. Control plants were sprayed in the same manner with the solvent blank.
(§6) The treated plants and control plants were placed in a greenhouse as described above and watered by sub-irrigation to prevent wash-off of the test compounds. After approximately 3 weeks, the condition of the test plants as compared with that of the untreated plants was determined visually and scored on a scale of 0 to 100 percent where 0 corresponds to no injury or growth inhibition and 100 corresponds to complete kill.
(§7) Colby's equation was used to determine the herbicidal effects expected from the mixtures (Colby, S. R. 1967. Calculation of the synergistic and antagonistic response of herbicide combinations. Weeds 15:20-22.).
(§8) The following equation was used to calculate the expected activity of mixtures containing two active ingredients, A and B: Expected=A+B−(A×B/100)

[2] = tested on: Ipomoea hederacea Jacq. (IPOHE); experiment: as above; conditions: post-emergence, 504 h, read-out: Visual Weed Control (%) Obs
Experimental: as §1, §2, §3, §4, §5, §6, §7, §8

[3] = tested on: Leptochloa chinensis (L.) Nees (LEFCH); experiment: In-water applied, transplanted paddy rice, greenhouse: visual weed control; conditions: 21 DAA
Experimental: Weed seeds or nutlets of the desired test plant species were planted in puddled soil (mud) prepared by mixing a shredded, non-sterilized mineral soil (50.5 percent silt, 25.5 percent clay, and 24 percent sand, with a pH of about 7.6 and an organic matter content of about 2.9 percent) and water at a 1:1 volumetric ratio. The prepared mud was dispensed in 365 mL aliquots into 16-ounce (oz.) non-perforated plastic pots with a surface area of 86.59 square centimeters (cm^2) leaving a headspace of 3 centimeters (cm) in each pot. Mud was allowed to dry overnight prior to planting or transplanting. Rice seeds were planted in Sun Gro MetroMix® 306 planting mixture, which typically has a pH of 6.0 to 6.8 and an organic matter content of about 30 percent, in plastic plug trays. Seedlings at the second or third leaf stage of growth were transplanted into 860 mL of mud contained in 32-oz. non-perforated plastic pots with a surface area of 86.59 cm^2 4 days prior to herbicide application. The paddy was created by filling the headspace of the pots with 2.5 to 3 cm of water. When required to ensure good germination and healthy plants, a fungicide treatment and/or other chemical or physical treatment was applied. The plants were grown for 4-22 days in a greenhouse with an approximate 14 h photoperiod which was maintained at about 29° C. during the day and 26° C. during the night. Nutrients were added as Osmocote® (19:6:12, N:P:K+minor nutrients) at 2 g per 16.-oz. pot and 4 g per 32-oz. pot. Water was added on a regular basis to maintain the paddy flood, and supplemental lighting was provided with overhead metal halide 1000-Watt lamps as necessary. The plants were employed for testing when they reached the first through fourth true leaf stage.
Treatments consisted of the acid or esters of 4-amino-3-chloro-5-fluoro-6-(4-chloro-2-fluoro-3-methoxy-phenyl)pyridine-2-carboxylic acid (compound A) each formulated as an SC and various herbicidal components alone and in combination. Forms of compound A were applied on an acid equivalent basis.
Treatment requirements for each compound or herbicidal component were calculated based upon the rates being tested, the concentration of active ingredient or acid equivalent in the formulation, an application volume of 2 mL per component per pot, and an application area of 86.59 cm^2 per pot.
For formulated compounds, a measured amount was placed in an individual 100 or 200 mL glass vial and was dissolved in a volume of 1.25% (v/v) Agri-Dex® crop oil concentrate to obtain application solutions.
For technical grade compounds, a weighed amount was placed in an individual 100 to 200 mL glass vial and was dissolved in a volume of acetone to obtain concentrated stock solutions. […] The concentrated stock solutions obtained were diluted with an equivalent volume of an aqueous mixture containing 2.5% (v/v) crop oil concentrate so that the final application solutions contained 1.25% (v/v) crop oil concentrate.
Applications were made by injecting, with a pipetter, appropriate amounts of the application solutions into the aqueous layer of the paddy. Control plants were treated in the same manner with the solvent blank. Applications were made so that all treated plant material received the same concentrations of acetone and crop oil concentrate.
as §6, with “water was added as needed” for “watered by sub-irrigation”, “maintain a paddy flood.” for “prevent wash-off of the test compounds.”, “weeks” for “weeks,”
Colby's equation was used to determine the herbicidal effects expected from the mixtures (Colby, S. R. 1967. Calculation of the synergistic and antagonistic response of herbicide combinations. Weeds 15:20-22.). […]

## CCCCOC(=O)c1nc(-c2ccc(Cl)c(OC)c2F)c(F)c(N)c1Cl [Compound A n-Butyl Ester]
[1]; 17.5 g ae/ha
  Visual Weed Control (%) Obs: 45%
[1]; 35 g ae/ha
  Visual Weed Control (%) Obs: 70%
[2]
  pest or weed control at 17.5 g/ha: 40%
[3]; 35 g ae/ha
  Visual Weed Control (%) Obs: 8%
[3]; 70 g ae/ha
  Visual Weed Control (%) Obs: 38%
